Laboratory results published in the supplement of paper PMC10307832.

What was measured:
Assay in all cases: relative viability (nuclei count vs DMSO), 5 days (fraction); higher = more cells survive
Avagacestat + Navitoclax = compound: NC(=O)[C@@H](CCC(F)(F)F)N(Cc1ccc(-c2ncon2)cc1F)S(=O)(=O)c1ccc(Cl)cc1 [Avagacestat] + CC1(C)CCC(c2ccc(Cl)cc2)=C(CN2CCN(c3ccc(C(=O)NS(=O)(=O)c4ccc(N[C@H](CCN5CCOCC5)CSc5ccccc5)c(S(=O)(=O)C(F)(F)F)c4)cc3)CC2)C1 [Navitoclax] (partner 0.5 µM)
Procedure, shortened: (§1)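 Lung cancer cell lines, seeded in 1536-well plates, were treated the following day by pin tool with a single drug or with five library-drug doses (not always all listed) in √10 steps on top of a fixed anchor-drug dose. Cells were fixed and nuclei stained in one step after 5 days, and nuclei were counted. Relative viability is the nuclei count for treated wells divided by that for vehicle wells, reported as medians of duplicate plates.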

Avagacestat + Luminespib = compound: NC(=O)[C@@H](CCC(F)(F)F)N(Cc1ccc(-c2ncon2)cc1F)S(=O)(=O)c1ccc(Cl)cc1 [Avagacestat] + CCNC(=O)c1noc(-c2cc(C(C)C)c(O)cc2O)c1-c1ccc(CN2CCOCC2)cc1 [Luminespib] (partner 0.01 µM)
Procedure, shortened: as §1

Avagacestat + Foretinib = compound: NC(=O)[C@@H](CCC(F)(F)F)N(Cc1ccc(-c2ncon2)cc1F)S(=O)(=O)c1ccc(Cl)cc1 [Avagacestat] + COc1cc2c(Oc3ccc(NC(=O)C4(C(=O)Nc5ccc(F)cc5)CC4)cc3F)ccnc2cc1OCCCN1CCOCC1 [Foretinib] (partner 0.25 µM)
Procedure, shortened: as §1

Avagacestat + Linsitinib = compound: NC(=O)[C@@H](CCC(F)(F)F)N(Cc1ccc(-c2ncon2)cc1F)S(=O)(=O)c1ccc(Cl)cc1 [Avagacestat] + C[C@]1(O)C[C@@H](c2nc(-c3ccc4ccc(-c5ccccc5)nc4c3)c3c(N)nccn32)C1 [Linsitinib] (partner 1 µM)
Procedure, shortened: as §1

Cell Line | relative viability (Avagacestat + Navitoclax; first compound 0.08 µM) | relative viability (Avagacestat + Navitoclax; first compound 0.253 µM) | relative viability (Avagacestat + Navitoclax; first compound 0.8 µM) | relative viability (Avagacestat + Navitoclax; first compound 2.53 µM) | relative viability (Avagacestat + Navitoclax; first compound 8 µM) | relative viability (Avagacestat + Luminespib; first compound 0.08 µM) | relative viability (Avagacestat + Luminespib; first compound 0.253 µM) | relative viability (Avagacestat + Luminespib; first compound 0.8 µM) | relative viability (Avagacestat + Luminespib; first compound 2.53 µM) | relative viability (Avagacestat + Luminespib; first compound 8 µM) | relative viability (Avagacestat + Foretinib; first compound 0.08 µM) | relative viability (Avagacestat + Foretinib; first compound 0.253 µM) | relative viability (Avagacestat + Foretinib; first compound 0.8 µM) | relative viability (Avagacestat + Foretinib; first compound 2.53 µM) | relative viability (Avagacestat + Foretinib; first compound 8 µM) | relative viability (Avagacestat + Linsitinib; first compound 0.08 µM) | relative viability (Avagacestat + Linsitinib; first compound 0.253 µM) | relative viability (Avagacestat + Linsitinib; first compound 0.8 µM) | relative viability (Avagacestat + Linsitinib; first compound 2.53 µM) | relative viability (Avagacestat + Linsitinib; first compound 8 µM)
LOU-NH91 | 0.69 | 0.723 | 0.684 | 0.531 | 0.646 | 0.311 | 0.341 | 0.31 | 0.331 | 0.342 | 0.925 | 0.916 | 0.974 | 0.886 | 0.893 | 0.966 | 0.883 | 1.01 | 0.786 | 0.929
LU99A | 0.869 | 0.8 | 0.776 | 0.852 | 0.777 | 0.308 | 0.199 | 0.305 | 0.247 | 0.213 | 0.807 | 0.875 | 0.925 | 0.837 | 0.786 | 0.598 | 0.561 | 0.63 | 0.563 | 0.644
LXF-289 | 0.964 | 0.996 | 1 | 1 | 0.885 | 0.794 | 0.675 | 0.912 | 0.686 | 0.603 | 1.04 | 0.957 | 0.992 | 0.982 | 0.893 | 1.02 | 1.02 | 0.957 | 1.02 | 0.82
NCI-H23 | 0.876 | 0.993 | 0.99 | 0.877 | 0.943 | 0.229 | 0.235 | 0.215 | – | 0.223 | 1.11 | 1.17 | 0.925 | 1.14 | 0.93 | 0.759 | 0.636 | 0.675 | 0.548 | 0.456
NCI-H322M | 1.24 | 1.16 | 1.22 | 1.14 | 1.07 | 0.862 | 0.875 | 0.927 | 0.695 | 0.638 | 0.969 | 0.935 | 1.04 | 0.728 | 0.774 | 0.826 | 0.892 | 1.03 | 0.823 | 0.681
NCI-H441 | 0.504 | 0.491 | 1.01 | 0.49 | 0.668 | 0.441 | 0.403 | 0.327 | 0.361 | 0.301 | 0.975 | 1.29 | 1.04 | 1.14 | 0.956 | 0.697 | 0.565 | 0.564 | 0.49 | 0.461
NCI-H460 | – | 1.92 | 1.37 | 0.759 | 1.15 | 0.0352 | 0.0325 | 0.0362 | 0.0361 | 0.0325 | 1.02 | 1.4 | 1.05 | 0.827 | 0.885 | 1.01 | 0.896 | 1.35 | 0.673 | 0.588
NCI-H520 | 1.16 | 1.15 | 1.06 | 0.95 | 1.06 | 0.223 | 0.241 | 0.239 | 0.218 | 0.23 | 0.755 | 0.753 | 0.731 | 0.657 | 0.629 | 1.15 | 1.09 | 0.933 | 0.864 | 0.889
